From patent US9533987B2, “Heterocyclic derivates” (KALVISTA PHARMACEUTICALS LIMITED, priority 2013, dated 2017)

Columns and labels:
[1] = target: Human plasma kallikrein (Homo sapiens (Human), UniProt P03952); assay: Determination of the IC50 for plasma kallikrein (fluorogenic substrate H-DPro-Phe-Arg-AFC); format: biochemical; settings: 37° C., read-out: IC50 (human PKaI)
Procedure: Determination of the IC50 for Plasma Kallikrein
(§1) Human plasma kallikrein (Protogen) was incubated at 37° C. with the fluorogenic substrate H-DPro-Phe-Arg-AFC and various concentrations of the test compound. Residual enzyme activity (initial rate of reaction) was determined by measuring the change in […] at 410 nm and the IC50 value for the test compound was determined.

[2] = Pharmacokinetics following a single oral dose in male Sprague-Dawley rats; format: in vivo; settings: rat, single po dose 10 mg/kg, plasma
Procedure: Pharmacokinetic studies of the compounds in Table 16 were performed to assess the pharmacokinetics following a single oral dose in male Sprague-Dawley rats. […] Following dosing, blood samples were collected over a period of 24 hours. Sample times were 5, 15 and 30 minutes then 1, 2, 4, 6, 8, 12 and 24 hours. Following collection, blood samples were centrifuged and the plasma fraction analysed for concentration of test compound by LCMS.

[3] = target: Human KLK1 (Homo sapiens (Human), UniProt P06870); assay: Determination of the IC50 for KLK1 (fluorogenic substrate H-DVal-Leu-Arg-AFC); format: biochemical; settings: 37° C.
Procedure: Determination of the IC50 for KLK1
as §1, with “KLK1 (Callbiochem)” for “plasma kallikrein (Protogen)”, “H-DVal-Leu-Arg-AFC” for “H-DPro-Phe-Arg-AFC”

[4] = target: Factor XIIa (Homo sapiens (Human), UniProt P00748); assay: Determination of enzyme selectivity, Factor XIIa; format: biochemical; settings: substrate at Km concentration
Procedure: Determination of Enzyme Selectivity
Human serine protease enzymes plasmin, thrombin, trypsin, Factor Xa and Factor XIIa were assayed for enzymatic activity using an appropriate fluorogenic substrate. Protease activity was measured by monitoring the accumulation of liberated fluorescence from the substrate over 5 minutes. The linear rate of fluorescence increase per minute was expressed as percentage (%) activity. The Km for the cleavage of each substrate was determined by standard transformation of the Michaelis-Menten equation.

Chain of Human plasma kallikrein (P03952 391-638): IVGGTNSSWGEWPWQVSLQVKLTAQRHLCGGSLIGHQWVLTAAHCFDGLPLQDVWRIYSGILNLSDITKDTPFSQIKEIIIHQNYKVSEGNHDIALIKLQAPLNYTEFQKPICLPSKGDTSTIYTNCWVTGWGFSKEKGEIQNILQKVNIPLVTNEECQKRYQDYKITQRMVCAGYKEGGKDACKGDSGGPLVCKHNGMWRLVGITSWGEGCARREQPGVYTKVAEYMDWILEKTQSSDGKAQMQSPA
Chain of Human plasma kallikrein (P03952 20-390 partner): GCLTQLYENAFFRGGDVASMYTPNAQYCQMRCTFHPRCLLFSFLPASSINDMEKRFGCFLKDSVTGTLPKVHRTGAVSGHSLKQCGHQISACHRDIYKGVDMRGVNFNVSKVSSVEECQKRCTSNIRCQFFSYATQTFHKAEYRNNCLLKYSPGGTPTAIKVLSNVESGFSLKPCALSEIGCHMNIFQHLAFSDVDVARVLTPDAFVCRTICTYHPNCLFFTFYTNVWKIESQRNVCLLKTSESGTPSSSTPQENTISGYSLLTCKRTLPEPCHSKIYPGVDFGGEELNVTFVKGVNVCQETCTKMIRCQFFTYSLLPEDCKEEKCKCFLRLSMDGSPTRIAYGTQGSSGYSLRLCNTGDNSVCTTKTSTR
Chain of Human KLK1 (P06870 25-262): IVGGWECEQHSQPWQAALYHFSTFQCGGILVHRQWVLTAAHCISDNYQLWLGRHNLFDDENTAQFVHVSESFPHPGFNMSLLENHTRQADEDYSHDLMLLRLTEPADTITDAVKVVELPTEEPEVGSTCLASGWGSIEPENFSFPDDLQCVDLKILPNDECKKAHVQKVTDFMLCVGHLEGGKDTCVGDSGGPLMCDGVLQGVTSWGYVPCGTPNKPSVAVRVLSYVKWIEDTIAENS
Chain of Factor XIIa (P00748 373-615): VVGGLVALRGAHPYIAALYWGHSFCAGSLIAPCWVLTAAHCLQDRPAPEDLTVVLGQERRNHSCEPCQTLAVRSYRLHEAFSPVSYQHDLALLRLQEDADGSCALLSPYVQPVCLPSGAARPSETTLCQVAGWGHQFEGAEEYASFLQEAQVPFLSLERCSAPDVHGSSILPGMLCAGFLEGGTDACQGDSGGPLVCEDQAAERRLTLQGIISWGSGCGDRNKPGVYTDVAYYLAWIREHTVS

Molecule | IC50 [1] | Cmax [2] | Tmax [2] | IC50 [3] | IC50 [4]
Cc1cnn(Cc2ccc(Cn3cc(C(=O)NCc4ccc5c(N)nccc5c4)c(C)n3)cc2)c1 [Example 11, 3-Methyl-1-[4-(4-methyl-pyrazol-1-ylmethyl)-benzyl]-1H-pyrazole-4-carboxylic acid (1-amino-isoquinolin-6-ylmethyl)-amide] | 0.00189 µM | 134 ng/mL | 23 min | 8.86 µM | > 10000 nM
Cc1cnn(Cc2ccc(Cn3cc(C(=O)NCc4ccc5c(N)nccc5c4)c(C4CC4)n3)cc2)c1 [Example 12, 3-Cyclopropyl-1-[4-(4-methyl-pyrazol-1-ylmethyl)-benzyl]-1H-pyrazole-4-carboxylic acid (1-amino-isoquinolin-6-ylmethyl)-amide] | 0.00258 µM | 155 ng/mL | 30 min | 6.06 µM | > 10000 nM
Cc1cnn(Cc2ccc(Cn3cc(C(=O)NCc4ccc5c(N)nccc5c4)c(-c4ccccc4)n3)cc2)c1 [Example 35, 1-[4-(4-Methyl-pyrazol-1-ylmethyl)-benzyl]-3-phenyl-1H-pyrazole-4-carboxylic acid (1-amino-isoquinolin-6-ylmethyl)-amide] | 0.00368 µM |  |  | > 10 µM | > 10000 nM
Cc1cnn(Cc2ccc(Cn3cc(C(=O)NCc4ccc5c(N)nccc5c4)c(C(C)C)n3)cc2)c1 [Example 13, 3-Isopropyl-1-[4-(4-methyl-pyrazol-1-ylmethyl)-benzyl]-1H-pyrazole-4-carboxylic acid (1-amino-isoquinolin-6-ylmethyl)-amide] | 0.00214 µM |  |  | 5.16 µM | > 10000 nM
1-[4-(4-Methyl-pyrazol-1-ylmethyl)-benzyl]-3-trifluoromethyl-1H-pyrazole-4-carboxylic acid (4,6-dimethyl-1H-pyrrolo[2,3-b]pyridin-5-ylmethyl)-amide [Example 119] | 0.0866 µM |  |  | > 4 µM | > 4000 nM
Cc1cnn(Cc2ccc(Cc3nc(C)c(C(=O)NCc4ccc5c(N)nccc5c4)s3)cc2)c1 [Example 18, 4-Methyl-2-[4-(4-methyl-pyrazol-1-ylmethyl)-benzyl]-thiazole-5-carboxylic acid (1-amino-isoquinolin-6-ylmethyl)-amide] | 0.032 µM |  |  | > 10 µM | > 10000 nM
Cc1cnn(Cc2ccc(Cn3cc(C(=O)NCc4cc5cc[nH]c5nc4C)cn3)cc2)c1 [Example 22, 1-[4-(4-Methyl-pyrazol-1-ylmethyl)-benzyl]-1H-pyrazole-4-carboxylic acid (6-methyl-1H-pyrrolo[2,3-b]pyridin-5-ylmethyl)-amide] | 0.132 µM |  |  | > 10 µM | > 10000 nM
Cc1cc(C(=O)NCc2ccc3ccnc(N)c3c2)c(C)n1Cc1csc(-c2ccccc2)n1 [Example 2, 2,5-Dimethyl-1-(2-phenyl-thiazol-4-ylmethyl)-1H-pyrrole-3-carboxylic acid (1-amino-isoquinolin-7-ylmethyl)-amide] | 2.11 µM |  |  | > 10 µM | > 10000 nM
Cc1cnn(Cc2ccc(Cn3cc(C(=O)NCc4ccc5c(N)nccc5c4)c(N)n3)cc2)c1 [Example 37, 3-Amino-1-[4-(4-methyl-pyrazol-1-ylmethyl)-benzyl]-1H-pyrazole-4-carboxylic acid (1-amino-isoquinolin-6-ylmethyl)-amide] | 0.00067 µM |  |  | 3.53 µM | > 10000 nM

Further lines, results first:

IC50 [1] | Cmax [2] | Tmax [2] | IC50 [3] | IC50 [4] | Molecule
0.108 µM |  |  | 8.88 µM | > 10000 nM | C[C@@H]1CCN(c2cc(Cn3cc(C(=O)NCc4ccc5c(N)nccc5c4)c(C(F)(F)F)n3)ccn2)C1 [Example 67, 1-[2-((R)-3-Methyl-pyrrolidin-1-yl)-pyridin-4-ylmethyl]-3-trifluoromethyl-1H-pyrazole-4-carboxylic acid (1-amino-isoquinolin-6-ylmethyl)-amide]
0.507 µM |  |  | > 10 µM | > 10000 nM | Cc1cnn(Cc2ccc(Cn3cc(C(=O)NCc4cc5cc[nH]c5nc4C)nn3)cc2)c1 [Example 116, 1-[4-(4-Methyl-pyrazol-1-ylmethyl)-benzyl]-1H-[1,2,3]triazole-4-carboxylic acid (6-methyl-1H-pyrrolo[2,3-b]pyridin-5-ylmethyl)-amide]
0.0718 µM |  |  | > 10 µM | > 10000 nM | Nc1nccc2cc(CNC(=O)c3cn(Cc4ccnc(N5CCC(F)(F)C5)c4)nc3C(F)(F)F)ccc12 [Example 56, 1-[2-(3,3-Difluoro-pyrrolidin-1-yl)-pyridin-4-ylmethyl]-3-trifluoromethyl-1H-pyrazole-4-carboxylic acid (1-amino-isoquinolin-6-ylmethyl)-amide]
12 µM |  |  | > 40 µM | > 40000 nM | O=C(NCc1cnc2[nH]ccc2c1)c1cnn(Cc2cccc(Oc3ncccc3F)c2)c1 [Example 106, 1-[3-(3-Fluoro-pyridin-2-yloxy)-benzyl]-1H-pyrazole-4-carboxylic acid (1H-pyrrolo[2,3-b]pyridin-5-ylmethyl)-amide]
0.0039 µM |  |  | 7.09 µM | > 10000 nM | Cc1cc(C(=O)NCc2ccc3c(N)nccc3c2)c(C)n1Cc1ccc(Cn2ccccc2=O)cc1 [Example 44, 2,5-Dimethyl-1-[4-(2-oxo-2H-pyridin-1-ylmethyl)-benzyl]-1H-pyrrole-3-carboxylic acid (1-amino-isoquinolin-6-ylmethyl)-amide]
0.0181 µM |  |  | 7.66 µM | > 10000 nM | Nc1nccc2cc(CNC(=O)c3cn(Cc4ccc(N5CC[C@@H](F)C5)nc4)nc3C(F)(F)F)ccc12 [Example 61, 1-[6-((R)-3-Fluoro-pyrrolidin-1-yl)-pyridin-3-ylmethyl]-3-trifluoromethyl-1H-pyrazole-4-carboxylic acid (1-amino-isoquinolin-6-ylmethyl)-amide]
0.0123 µM |  |  | 5.7 µM | > 10000 nM | C[C@@H]1CCCN1c1ccc(Cn2cc(C(=O)NCc3ccc4c(N)nccc4c3)c(C(F)(F)F)n2)cn1 [Example 63, 1-[6-((R)-2-Methyl-pyrrolidin-1-yl)-pyridin-3-ylmethyl]-3-trifluoromethyl-1H-pyrazole-4-carboxylic acid (1-amino-isoquinolin-6-ylmethyl)-amide]
0.00961 µM |  |  | 9.57 µM | > 10000 nM | Nc1nccc2cc(CNC(=O)c3cn(Cc4ccc(N5CC[C@H](F)C5)nc4)nc3C(F)(F)F)ccc12 [Example 60, 1-[6-((S)-3-Fluoro-pyrrolidin-1-yl)-pyridin-3-ylmethyl]-3-trifluoromethyl-1H-pyrazole-4-carboxylic acid (1-amino-isoquinolin-6-ylmethyl)-amide]
0.0606 µM |  |  | > 10 µM | > 10000 nM | Cc1cnn(Cc2ccc(Cn3cc(C(=O)NCc4ccc5[nH]ccc5c4)c(C(F)(F)F)n3)cc2)c1 [Example 112, 1-[4-(4-Methyl-pyrazol-1-ylmethyl)-benzyl]-3-trifluoromethyl-1H-pyrazole-4-carboxylic acid (1H-indol-5-ylmethyl)-amide]
0.0136 µM |  |  | > 10 µM | > 10000 nM | C[C@H]1CCCN1c1ccc(Cn2cc(C(=O)NCc3ccc4c(N)nccc4c3)c(C(F)(F)F)n2)cn1 [Example 62, 1-[6-((S)-2-Methyl-pyrrolidin-1-yl)-pyridin-3-ylmethyl]-3-trifluoromethyl-1H-pyrazole-4-carboxylic acid (1-amino-isoquinolin-6-ylmethyl)-amide]
2.03 µM |  |  | 15.8 µM | > 40000 nM | Nc1nccc2cc(CNC(=O)c3cnn(Cc4cccc(Oc5ccccc5)n4)c3)ccc12 [Example 47, 1-(6-Phenoxy-pyridin-2-ylmethyl)-1H-pyrazole-4-carboxylic acid (1-amino-isoquinolin-6-ylmethyl)-amide]
0.0467 µM |  |  | 18.2 µM | > 4000 nM | Nc1nccc2cc(CNC(=O)c3cn(Cc4ccnc(N5CCCC5)c4)nc3C(F)(F)F)ccc12 [Example 54, 1-(2-Pyrrolidin-1-yl-pyridin-4-ylmethyl)-3-trifluoromethyl-1H-pyrazole-4-carboxylic acid (1-amino-isoquinolin-6-ylmethyl)-amide]
0.576 µM |  |  | 11.7 µM | > 40000 nM | Nc1nccc2cc(CNC(=O)c3cnn(Cc4ccnc(N5CCCC5)c4)c3C(F)(F)F)ccc12 [Example 51, 1-(2-Pyrrolidin-1-yl-pyridin-4-ylmethyl)-5-trifluoromethyl-1H-pyrazole-4-carboxylic acid (1-amino-isoquinolin-6-ylmethyl)-amide]
0.146 µM |  |  | 7.23 µM | > 10000 nM | Cc1cnn(Cc2ccc(Cn3cc(C(=O)NCc4cccc5[nH]ncc45)c(C(F)(F)F)n3)cc2)c1 [Example 124, 1-[4-(4-Methyl-pyrazol-1-ylmethyl)-benzyl]-3-trifluoromethyl-1H-pyrazole-4-carboxylic acid (1H-indazol-4-ylmethyl)-amide]
